Results on 2 compounds are retold here after patent US20100316712A1, “PHARMACEUTICAL COMPOSITIONS FOR TREATMENT OF PARKINSON'S DISEASE AND RELATED DISORDERS” (Combinatorx, Incorporated, priority 2006, published 2010).

Where two headings read alike, the source gives them in different places.

The conditions of data set [1]: in vivo; cited from earlier work.
The conditions of data set [2]: doses of 400 mg per day; cited from earlier work.
Data set [3] in a line: Plasma carbidopa and levodopa after SINEMET CR alone or after carbidopa pre-dosing. It is filed as in vivo. The conditions noted are these: fed beagle dogs; for AUC(0-t): beagle, dog, plasma, po, read-out: AUC0-24; for increase in AUC0-24 / increase in peak concentrations: carbidopa pre-dosing + SINEMET CR vs SINEMET CR alone. How it is done: The following experiment was designed to determine if effective levodopa concentration in vivo is increased at the presence of a higher ratio of carbidopa to levodopa (as compared to that used in conventional therapy).
SINEMET® CR tablets (50 mg carbidopa/200 mg levodopa) were administered to fed beagle dogs either alone or after pre-dosing with 12.5 mg and 25 mg of carbidopa, and plasma concentrations of carbidopa and levodopa were measured over time (data not shown).

Where [4] appears, read: Carbidopa 12.5 mg pre-dose + SINEMET CR.
The mark [5] stands for this setting: Carbidopa 25 mg pre-dose + SINEMET CR.
[6] abbreviates: SINEMET CR (50 mg carbidopa/200 mg levodopa) alone.

Regarding `C[C@@](Cc1ccc(O)c(O)c1)(NN)C(=O)O` [Carbidopa], in data set [1], the “fraction of an administered dose absorbed” value was “About 70%”. In addition, the adverse effects result in data set [2] is recorded as “fails to elicit adverse effects”. The figures for the AUC(0-t) in data set [3] (setting [4]), in data set [3] (setting [5]) and in data set [3] (setting [6]) were 592 ± 303 ng·h/mL, 956 ± 534 ng·h/mL and 215 ± 43 ng·h/mL, respectively. For the same compound, the “increase in AUC0-24” value in data set [3] is approximately 100%. Besides, the “increase in peak concentrations” value in data set [3] was approximately 100%.

On to `N[C@@H](Cc1ccc(O)c(O)c1)C(=O)O` [Levodopa, L-3,4-dihydroxyphenylalanine], for which the AUC(0-t) in data set [3] (setting [4]) was 8640 ± 2060 ng·h/mL; in data set [3] (setting [5]), 7000 ± 3830 ng·h/mL; in data set [3] (setting [6]), 3900 ± 298 ng·h/mL. Also, the “increase in AUC0-24” value in data set [3] is given as approximately 100%. Also, in data set [3], the “increase in peak concentrations” value is on record as approximately 100%.
